Experimental data reported in ChEMBL document CHEMBL1201862, “PubChem BioAssay data set” (2004).
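Dose response: 5 concentrations. Exposure: 48 h. Format: 96-well plates. Endpoint: linear interpolation; highest concentration if not reached. GI50 marks 50% less growth.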 The source made the active and inactive calls. No stated cut-off is given here; in the data, active = GI50 up to about 1.1 µM and inactive = higher.

Columns and labels:
Test in all cases: inhibition of tumour cell growth, NCI panel, 48 h
RPMI-8226 = test system: RPMI-8226
CCRF-CEM = test system: CCRF-CEM
SR = test system: SR
OVCAR-8 = test system: OVCAR-8
LOX IMVI = test system: LOX IMVI
SN12C = test system: SN12C
EKVX = test system: EKVX
ACHN = test system: ACHN
CAKI-1 = test system: CAKI-1
UACC-62 = test system: UACC-62
SF-268 = test system: SF-268
SK-MEL-28 = test system: SK-MEL-28
OVCAR-5 = test system: OVCAR-5
NCI-H226 = test system: NCI-H226
U-251 = test system: U-251
HT-29 = test system: HT-29
OVCAR-3 = test system: OVCAR-3
HCC 2998 = test system: HCC 2998
NCI-H460 = test system: NCI-H460
HL-60 = test system: HL-60

Measured: GI50

CSc1ccccc1P(c1ccccc1SC)c1ccccc1SC
inactive: RPMI-8226 > 100 µM | CCRF-CEM > 100 µM | SR > 100 µM | OVCAR-8 > 100 µM | LOX IMVI > 100 µM | SN12C > 100 µM | EKVX > 100 µM | ACHN > 100 µM | CAKI-1 > 100 µM | UACC-62 > 100 µM | SF-268 > 100 µM | SK-MEL-28 > 100 µM | OVCAR-5 > 100 µM | NCI-H226 > 100 µM | U-251 31.6 µM

O=S1(=O)C[C@H](NCc2ccccc2)[C@H](NCc2ccccc2)C1
inactive: RPMI-8226 22.8 µM | CCRF-CEM 29.4 µM | SR 18.4 µM | HT-29 > 100 µM | OVCAR-8 96.2 µM | OVCAR-3 > 100 µM | LOX IMVI > 100 µM | SN12C > 100 µM | EKVX > 100 µM | HCC 2998 > 100 µM | ACHN > 100 µM | NCI-H460 > 100 µM | CAKI-1 > 100 µM | UACC-62 > 100 µM | SF-268 > 100 µM | SK-MEL-28 > 100 µM | OVCAR-5 > 100 µM | NCI-H226 > 100 µM | U-251 93.8 µM

COC(=O)C1=C(O)C(C(=O)OC)[C@@]2(O)[C@@H](C(=O)OC)[C@H](C)C[C@@H]1[C@@H]2C(=O)OC (stereo not given in full)
inactive: RPMI-8226 23.8 µM | CCRF-CEM 28.1 µM | SR 21.3 µM | HT-29 27.6 µM | HL-60 25.9 µM | OVCAR-3 20 µM | LOX IMVI 32.5 µM | SN12C 36.6 µM | EKVX 22.4 µM | HCC 2998 16.6 µM | ACHN 59.8 µM | NCI-H460 20 µM | UACC-62 23.7 µM | SK-MEL-28 46.2 µM | OVCAR-5 30.5 µM | NCI-H226 39.3 µM | U-251 20.5 µM

COc1ccc(N2C(=O)C3c4[nH]c5ccc(F)cc5c4C4CCC(C(C)(C)C)CC4C3C2=O)cc1 (stereo not given)
inactive: RPMI-8226 > 10 µM | CCRF-CEM 7.13 µM | SR > 10 µM | HT-29 6.28 µM | OVCAR-8 7.8 µM | HL-60 > 10 µM | OVCAR-3 > 10 µM | SN12C > 10 µM | EKVX > 10 µM | HCC 2998 > 10 µM | ACHN > 10 µM | NCI-H460 5.07 µM | CAKI-1 > 10 µM | UACC-62 7.43 µM | SF-268 8.28 µM | SK-MEL-28 > 10 µM | OVCAR-5 > 10 µM | NCI-H226 > 10 µM | U-251 5.02 µM

Cc1cc(C)c(-n2[nH]c(=O)n(C)c2=O)c(C)c1
inactive: RPMI-8226 > 100 µM | CCRF-CEM > 100 µM | SR > 100 µM | HT-29 > 100 µM | OVCAR-8 > 100 µM | HL-60 > 100 µM | OVCAR-3 > 100 µM | LOX IMVI > 100 µM | SN12C > 100 µM | EKVX > 100 µM | HCC 2998 > 100 µM | NCI-H460 > 100 µM | CAKI-1 > 100 µM | UACC-62 > 100 µM | SF-268 > 100 µM | SK-MEL-28 > 100 µM | OVCAR-5 > 100 µM | NCI-H226 > 100 µM | U-251 > 100 µM

CCOC(=O)C(=O)Nc1c(CC)cccc1C(C)CC (stereo not given)
inactive: RPMI-8226 > 100 µM | CCRF-CEM > 100 µM | SR > 100 µM | HT-29 > 100 µM | OVCAR-8 > 100 µM | HL-60 > 100 µM | OVCAR-3 > 100 µM | LOX IMVI > 100 µM | SN12C > 100 µM | EKVX > 100 µM | HCC 2998 > 100 µM | ACHN > 100 µM | NCI-H460 > 100 µM | CAKI-1 > 100 µM | UACC-62 > 100 µM | SF-268 > 100 µM | SK-MEL-28 > 100 µM | OVCAR-5 > 100 µM | NCI-H226 > 100 µM | U-251 > 100 µM

CCOC(=O)c1csc(NC(=O)CN2CCCCC2)n1
inactive: RPMI-8226 > 100 µM | CCRF-CEM > 100 µM | HT-29 > 100 µM | OVCAR-8 > 100 µM | HL-60 > 100 µM | OVCAR-3 > 100 µM | LOX IMVI > 100 µM | EKVX > 100 µM | HCC 2998 > 100 µM | ACHN > 100 µM | NCI-H460 > 100 µM | CAKI-1 > 100 µM | UACC-62 > 100 µM | SF-268 > 100 µM | SK-MEL-28 > 100 µM | OVCAR-5 > 100 µM | U-251 > 100 µM

O=C1CC2CC3OC3[C@H]3c4cc5c(cc4C(=O)N1C23)OCO5 (stereo not given in full)
inactive: RPMI-8226 > 100 µM | CCRF-CEM > 100 µM | SR > 100 µM | HT-29 > 100 µM | OVCAR-8 > 100 µM | HL-60 > 100 µM | OVCAR-3 > 100 µM | LOX IMVI > 100 µM | SN12C > 100 µM | EKVX > 100 µM | HCC 2998 > 100 µM | ACHN > 100 µM | NCI-H460 > 100 µM | CAKI-1 > 100 µM | UACC-62 > 100 µM | SF-268 > 100 µM | SK-MEL-28 > 100 µM | OVCAR-5 > 100 µM | NCI-H226 > 100 µM

CC(C)(C)N(Cc1ccoc1)C(=O)/C=C\[S+]([O-])c1ccccc1 (stereo not given)
inactive: RPMI-8226 14.4 µM | CCRF-CEM 3.05 µM | SR 6.44 µM | HT-29 22.9 µM | OVCAR-8 14.4 µM | HL-60 12.7 µM | OVCAR-3 13.3 µM | LOX IMVI 5.45 µM | SN12C 20.9 µM | EKVX 22.8 µM | HCC 2998 18.5 µM | ACHN 25.9 µM | CAKI-1 14.5 µM | UACC-62 20 µM | SF-268 30.1 µM | SK-MEL-28 21.8 µM | OVCAR-5 25.2 µM | NCI-H226 25.9 µM | U-251 15.5 µM

NCc1ccccc1-c1c2nc(c(-c3ccccc3CN)c3ccc([nH]3)c(-c3ccccc3CN)c3nc(c(-c4ccccc4CN)c4ccc1[nH]4)C=C3)C=C2
inactive: RPMI-8226 12.4 µM | CCRF-CEM 4.17 µM | SR > 10 µM | HT-29 28.2 µM | OVCAR-8 37 µM | HL-60 14.5 µM | OVCAR-3 16.2 µM | LOX IMVI 19.7 µM | SN12C 18.7 µM | EKVX 23.8 µM | HCC 2998 25.9 µM | ACHN 16.4 µM | NCI-H460 19.1 µM | UACC-62 24.9 µM | SF-268 20.8 µM | SK-MEL-28 19 µM | OVCAR-5 13.9 µM | NCI-H226 13.9 µM | U-251 18.5 µM

COc1c(OC)c(OC)c2c(c1OC)c(=O)c1ccccc1n2C [MELICOPICINE]
inactive: RPMI-8226 > 100 µM | CCRF-CEM > 10 µM | SR 6.65 µM | HT-29 > 100 µM | OVCAR-8 > 100 µM | HL-60 57.4 µM | OVCAR-3 > 100 µM | LOX IMVI > 100 µM | SN12C > 100 µM | EKVX > 100 µM | HCC 2998 > 100 µM | ACHN > 100 µM | NCI-H460 > 10 µM | CAKI-1 > 100 µM | UACC-62 > 100 µM | SF-268 > 100 µM | SK-MEL-28 > 100 µM | OVCAR-5 > 100 µM | NCI-H226 > 100 µM | U-251 > 100 µM

CCCCCCCCCCCCCCCCCCN(C)CC(COP(=O)([O-])OCC[N+](C)(C)C)OC (stereo not given)
inactive: RPMI-8226 6.03 µM | CCRF-CEM 5.4 µM | SR 2.44 µM | HT-29 4.94 µM | OVCAR-8 26.6 µM | HL-60 3.66 µM | OVCAR-3 28.6 µM | LOX IMVI 10 µM | SN12C 27.4 µM | EKVX 26.9 µM | HCC 2998 6.75 µM | ACHN 22.6 µM | NCI-H460 4.25 µM | CAKI-1 5.27 µM | UACC-62 11.2 µM | SF-268 8.17 µM | SK-MEL-28 38.3 µM | OVCAR-5 4.51 µM | NCI-H226 16.5 µM | U-251 4.9 µM

CCCCOc1ccc2c(c1)CC[C@@H]1[C@@H]2CC[C@]2(C)C(=O)N(CCCC)C(=O)C[C@@H]12
inactive: RPMI-8226 65.9 µM | CCRF-CEM 44.6 µM | SR > 100 µM | HT-29 > 100 µM | OVCAR-8 > 100 µM | HL-60 44.4 µM | OVCAR-3 > 100 µM | SN12C > 100 µM | HCC 2998 > 100 µM | NCI-H460 > 100 µM | CAKI-1 > 100 µM | UACC-62 > 100 µM | OVCAR-5 > 100 µM | NCI-H226 > 100 µM | U-251 > 100 µM

O=C(/C=C1\Nc2ncccc2N=C1CC(=O)c1ccccc1)c1ccccc1
inactive: RPMI-8226 5.37 µM | CCRF-CEM 2.49 µM | SR 4.66 µM | HT-29 6.89 µM | OVCAR-8 5.93 µM | HL-60 13.5 µM | OVCAR-3 1.66 µM | LOX IMVI 5.12 µM | SN12C 2.24 µM | ACHN 4.94 µM | NCI-H460 1.59 µM | CAKI-1 2.06 µM | UACC-62 2.84 µM | SF-268 2.53 µM | SK-MEL-28 32.3 µM | OVCAR-5 23.5 µM | U-251 3.24 µM
